# Laboratory results from patent US9241941B2, “Methods for treatment of lymphomas with mutations in cell cycle genes” (priority 2012, dated 2016).
# Assays:
# [1] = tested on: xenografted DoHH2 tumors; test: DoHH2 xenograft treatment study; assay type: in vivo, NOD/SCID mice; settings: for course of tumors after the treatment course / durability of response / tumor growth during the treatment course: PD 150 mg/kg p.o., ABT 50 mg/kg i.v., alternate days, days 1-14
# Method: Xenografts and treatment studies. Xenograft mice were generated as described (Schatz et al., J Exp Med 208:1799-1807 (2011)); briefly, s.c. injection of 5 Mio DoHH2 or SU-DHL-8 human lymphoma cells mixed with matrigel (BD Bioscience, 354230) into the flanks of NOD/SCID (NOD.CB17-Prkdc^scid/J) mice. […] The control animals were treated with 50 mmol/L sodium lactate (pH4), PTD solution and 5% of Dextrose in water solution respectively. Tumors were weighed and volumes were measured twice weekly.
# The translocation t(14;18) is the cytogenetic hallmark of FL and promotes lymphoma cell survival by activating the anti-apoptotic BCL2 protein. BH3 mimetic drugs like ABT-737 block BCL2 function by inserting into the BH3-binding groove of anti-apoptotic BCL2 proteins (Oltersdorf et al., Nature 435:677-681 (2005)).
# [2] = tested on: cell lines that carry the translocation t(14;18) (DoHH2, Su-DHL-6, Su-DHL-16, Ly8); test: Viability / apoptosis of human lymphoma lines after in vitro treatment; assay type: cell-based; settings: for induction of apoptosis / cell death in vitro, single agent: FL-derived cell lines, 1 μM; for selectivity for cell lines carrying translocation t(14;18): panel of human lymphoma lines, viability after 24 h
# Method: Cell culture, cell cycle and viability assays. Lymphoma cell lines DoHH2, Ly-8, Su-DHL-6, Su-DHL-16, Su-DHL-8 and Su-DHL-10 were maintained in RPMI 1640 with 10% fetal bovine serum, 1% L-Glutamine and 1% penicillin/streptomycin. […] Briefly, cells were seed at 5×10^5 per mL and they were treated with PD-0332991 and/or ABT-737 and/or Obatoclax. After 24 h of treatment cell viability was assessed using CellTiter-Glo reagent (Promega).
# [3] = tested on: DoHH2, Su-DHL6, Su-DHL-16, and Ly8 cells; test: Cell cycle assay in human lymphoma cell lines; assay type: cell-based
# Method: Cell culture, cell cycle and viability assays. Lymphoma cell lines DoHH2, Ly-8, Su-DHL-6, Su-DHL-16, Su-DHL-8 and Su-DHL-10 were maintained in RPMI 1640 with 10% fetal bovine serum, 1% L-Glutamine and 1% penicillin/streptomycin. Human lymphoma cell lines treated with PD-0332991 and Obatoclax were analyzed for cell viability and cell cycle assays. Briefly, cells were seed at 5×10^5 per mL and they were treated with PD-0332991 and/or ABT-737 and/or Obatoclax. After 24 h of treatment cell viability was assessed using CellTiter-Glo reagent (Promega). Cell cycle assay based on uptake of DNA staining dye using Cell Cycle Reagent assays (cat. 4700-0169 from Guava Technologies, Millipore) was performed following to manufacturer instructions.
# [4] = tested on: RB phosphorylation (Ser 780); test: Immunoblot for RB phosphorylation in treated lymphoma cells; assay type: cell-based, human; settings: DoHH2, Su-DHL6, Su-DHL-16, Ly8 cells treated with PD-0332991
# Method: Western blot analysis. Immunoblots were performed from whole cell lysates or tissue samples as described (Steidl et al., Nature 471:377-381 (2011)). Briefly, 30 μg of protein/sample were resolved on SDS-PAGE gels and transferred to Immobilon-P-membranes (Millipore). Antibodies were against Rb (Cell Signaling cat #9309), Phospho-Rb S780 (Cell Signaling cat #3590), Phospho-Rb S795 (Cell Signaling cat #7986), CDK4 (Cell Signaling cat #2906), CyclinD3 (Cell Signaling cat #2936), Cyclin D1 (Cell Signaling cat #2926), Cyclin D2 (Cell Signaling cat #2924) p16 (Santa Cruz Biotechnology cat # sc 1207), Caspase 3 (Cell Signaling cat #9662) Tubulin (1:5000; Sigma, B-5-1-2). Enhanced chemiluminescence was used for detection (ECL, Amersham).
# [5] = tested on: vavBcl2/CDK4 lymphoma; test: Treatment of primary murine vavBcl2/CDK4 lymphomas in vivo; settings: lymphocyte counts
# [6] = tested on: vavBcl2/c-MYC lymphomas; test: Treatment of primary murine vavBcl2/c-MYC lymphomas in vivo
# Method: Generation of mice. The vavP Bcl2 mouse model of FL (Lowe et al., Nature 432:307-315 (2004)) was adapted to adoptive transfer of retrovirally transduced HPCs^1. Data were analyzed in Kaplan-Meier format using the log-rank (Mantel-Cox) test for statistical significance. H&E, Ki67, TUNEL, P-RB, and surface marker analysis were as in (Staudt, N Engl J Med 356:741-742 (2007)).
# Most FL cell lines are derived from transformed FLs and are carry the hallmark translocation t(14;18). These include DoHH2, Su-DHL-6, Su-DHL-16 and Ly 8 cells. These lines also have high levels of CDK4, CDK6, and phosphorylated RB (S780 and S795) (FIG. 10A) and DoHH2 cells carry a homozygous p16 deletion (Gronbaek et al., Leukemia 14:1727-1735 (2000)). To examine the effect of targeted therapies, the inventors first treated DoHH2, Su-DHL6, Su-DHL-16, and Ly8 cells with increasing doses of PD-0332991. […] Further, knockdown of either CDK4 or CDK6 alone was not sufficient for cell cycle arrest indicating functional compensation between these homologous RB kinases and the requirement to block both (FIG. 10I/J). Given the limitations of transformed FL-derived lines, the inventors also tested PD-0332991 against primary murine vavBcl2 induced lymphomas in vivo.
SMILES,course of tumors after the treatment course / durability of response [1],tumor growth during the treatment course [1],"cell death in tumors in vivo (caspase cleavage, TUNEL) ([1]; tumors at end of treatment)","induction of apoptosis / cell death in vitro, single agent [2]",selectivity for cell lines carrying translocation t(14;18) [2],RB phosphorylation (Ser 780) in tumors in vivo ([1]; immunoblot on lysates of treated tumors),proliferation by Ki67 in tumors in vivo ([1]; immunohistochemistry at end of treatment),"cell cycle arrest after RB knockdown ([3]; DoHH2 cells expressing RB shRNA, PD-0332991 1 μM)","growth and cell cycle profile ([3]; increasing doses of PD-0332991, 24 h, all four lines)",RB phosphorylation in cells [4],response of lymphoma bearing animals [5],response of lymphoma bearing animals ([6]; histologically transformed vavBcl2/c-MYC lymphomas),time by which all animals succumbed to disease ([6]; vav-Bcl2/Myc tumor bearing animals treated with PD-0332991) [days]
CN(C)CC[C@H](CSc1ccccc1)Nc1ccc(S(=O)(=O)NC(=O)c2ccc(N3CCN(Cc4ccccc4-c4ccc(Cl)cc4)CC3)cc2)cc1[N+](=O)[O-] [ABT-737],residual tumors rapidly expanded thereafter,somewhat restrained tumor growth,significant cell death,powerfully induced apoptosis and caspase cleavage,selective activity against cell lines that carry the translocation t(14;18),–,–,–,–,–,–,–,–
COC1=CC(c2cc3ccccc3[nH]2)=N/C1=C\c1[nH]c(C)cc1C [Obatoclax],–,–,–,potently induced cell death,less selective for cells carrying the translocation t(14;18),–,–,–,–,–,–,–,–
CC(=O)c1c(C)c2cnc(Nc3ccc(N4CCNCC4)cn3)nc2n(C2CCCC2)c1=O [PD-0332991],residual tumors rapidly expanded thereafter,somewhat restrained tumor growth,–,–,–,complete loss of RB phosphorylation (Ser 780),slowed proliferation by Ki67,knockdown of RB bypassed the cell cycle arrest,complete growth arrest and accumulation in the G1 phase,loss of RB phosphorylation,induced responses,ineffective,≤ 10
